Measured values published in patent US10005767B2, “Compositions and methods for inhibition of the JAK pathway” (Rigel Pharmaceuticals, Inc., priority 2009, dated 2018).

The compounds below were run on human primary T-cells, IL-2 stimulated proliferation (JAK-1 and JAK-3 dependent; reported as JAK3 activity) (assay: Human primary T-cell proliferation stimulated by IL-2 (Example 3)). Conditions: Homo sapiens, T-cell, tested under conditions described in Example 3 (IL-2 stimulated human primary T-cell proliferation); read-out: ability to inhibit JAK3 activity, IC50 range (Table V).
Assay type: cell-based
Procedure, shortened: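 Peripheral-blood human T-cells pre-activated via TCR/CD28, IL-2-starved overnight, then cultured 72 h at 37 °C with compound in Yssel's medium containing IL-2 (80 U/mL in cell suspension). Proliferation read as viable-cell ATP by CellTiter-Glo luminescence; reduction versus control taken as JAK pathway inhibition.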
For Cc1ccc(Cl)c(Nc2ncc(C)c(Nc3ccc4oc(=O)[nH]c4c3)n2)c1 [Compound I-521, 5-(2-(2-chloro-5-methylphenylamino)-5-methylpyrimidin-4-ylamino)benzo[d]oxazol-2(3H)-one], the IC50 was less than 500 nM. Cc1cnc(Nc2ccc(N[C@@H]3CCCNC3)nc2)nc1Nc1ccc2oc(=O)[nH]c2c1 [II-107, (R)-5-(5-methyl-2-(6-(piperidin-3-ylamino)pyridin-3-ylamino)pyrimidin-4-ylamino)benzo[d]oxazol-2(3H)-one] gave an IC50 of less than 500 nM. Cc1cnc(Nc2ccc(F)c(-c3ccncc3)c2)nc1Nc1ccc2oc(=O)[nH]c2c1 [Compound I-471, 5-(2-(4-fluoro-3-(pyridin-4-yl)phenylamino)-5-methylpyrimidin-4-ylamino)benzo[d]oxazol-2(3H)-one] showed an IC50 of less than 500 nM. CCOc1ccc(Nc2ncc(C)c(Nc3ccc4oc(=O)[nH]c4c3)n2)cc1C(F)(F)F [Compound I-168, 5-[2-(4-Ethoxy-3-trifluoromethyl-phenylamino)-5-methyl-pyrimidin-4-ylamino]-3H-benzooxazol-2-one] was tested, and the IC50 was 500 to 5000 nM. Compound CCNC(C)c1cc(Nc2ncc(C)c(Nc3ccc4oc(=O)[nH]c4c3)n2)cc(C(F)(F)F)c1 (centres unmarked) [Compound I-462, 5-(2-(3-(1-(ethylamino)ethyl)-5-(trifluoromethyl)phenylamino)-5-methylpyrimidin-4-ylamino)benzo[d]oxazol-2(3H)-one] has an IC50 of less than 500 nM. Cc1cnc(Nc2ccc3c(c2)NC(=O)C3(C)C)nc1Nc1ccc2oc(=O)[nH]c2c1 [IV-26, 5-(2-(3,3-dimethyl-2-oxoindolin-6-ylamino)-5-methylpyrimidin-4-ylamino)benzo[d]oxazol-2(3H)-one] was tested, and the IC50 was less than 500 nM. With CN[C@@H]1CCCN(c2ccc(Nc3ncc(C)c(Nc4ccc5oc(=O)[nH]c5c4)n3)cn2)C1 [II-88, (R)-5-(5-methyl-2-(6-(3-(methylamino)piperidin-1-yl)pyridin-3-ylamino)pyrimidin-4-ylamino)benzo[d]oxazol-2(3H)-one] the IC50 was less than 500 nM. Cc1cnc(Nc2ccc(N(C)[C@@H]3CCCN(Cc4ccccc4)C3)nc2)nc1Nc1ccc2oc(=O)[nH]c2c1 [II-106, (R)-5-(2-(6-((1-benzylpiperidin-3-yl)(methyl)amino)pyridin-3-ylamino)-5-methylpyrimidin-4-ylamino)benzo[d]oxazol-2(3H)-one] gave an IC50 of less than 500 nM. With Cc1cnc(Nc2c(F)cc(F)cc2F)nc1Nc1ccc2oc(=O)[nH]c2c1 [IV-59, 5-[5-Methyl-2-(2,4,6-trifluoro-phenylamino)-pyrimidin-4-ylamino]-3H-benzooxazol-2-one] the IC50 was greater than 10000 nM. Work on Cc1cnc(Nc2ccc3cnoc3c2)nc1Nc1ccc2oc(=O)[nH]c2c1 [IV-5, N4-(benzo[d]oxazol-2(3H)-on-5-yl)-N2-(1,2-benzisoxazol-6-yl)-5-methylpyrimidine-2,4-diamine] yielded an IC50 of less than 500 nM. CCCNC(C)c1cc(Nc2ncc(C)c(Nc3ccc4oc(=O)[nH]c4c3)n2)cc(OC)c1 (centres unmarked) [Compound I-232, 5-(2-(3-methoxy-5-(1-(propylamino)ethyl)phenylamino)-5-methylpyrimidin-4-ylamino)benzo[d]oxazol-2(3H)-one] gave an IC50 of less than 500 nM. With Cc1cnc(Nc2ccc(N3CCN(C(C)C)CC3)nc2)nc1Nc1ccc2oc(=O)[nH]c2c1 [II-136, N2-[2-(4-isopropylpiperazino)pyridin-5-yl]-5-methyl-N4-(2-oxo-2,3-dihydro-1,3-benzoxazol-5-yl)-2,4-pyrimidinediamine] the IC50 was less than 500 nM. In the case of Cc1cc(C)cc(Nc2ncc(C)c(Nc3cc(F)c4oc(=O)[nH]c4c3)n2)c1 [Compound I-488, 5-(2-(3,5-dimethylphenylamino)-5-methylpyrimidin-4-ylamino)-7-fluorobenzo[d]oxazol-2(3H)-one], the IC50 is reported as less than 500 nM. With Cc1cnc(Nc2ccc(F)cc2)nc1Nc1ccc2oc(=O)[nH]c2c1 [Compound I-470, 5-[2-(4-Fluoro-phenylamino)-5-methyl-pyrimidin-4-ylamino]-3H-benzooxazol-2-one] the IC50 was less than 500 nM. In the case of Cc1cnc(Nc2cnc(N3CC4CN(C(=O)OC(C)(C)C)CC4C3)c(F)c2)nc1Nc1ccc2oc(=O)[nH]c2c1 (centres unmarked) [II-48, 5-{3-Fluoro-5-[5-methyl-4-(2-oxo-2,3-dihydro-benzooxazol-5-ylamino)-pyrimidin-2-ylamino]-pyridin-2-yl}-hexahydro-pyrrolo[3,4-c]pyrrole-2-carboxylic acid tert-butyl ester], the IC50 is reported as less than 500 nM. Compound Cc1cnc(Nc2cccc(C#N)c2)nc1Nc1ccc2oc(=O)[nH]c2c1 [Compound I-26, N4-(benzo[d]oxazol-2(3H)-on-5-yl)-N2-(3-cyanophenyl)-5-methylpyrimidine-2,4-diamine] has an IC50 of less than 500 nM. Cc1cnc(Nc2ccc(S(C)(=O)=O)nc2)nc1Nc1ccc2oc(=O)[nH]c2c1 [II-43, 5-[2-(6-Methanesulfonyl-pyridin-3-ylamino)-5-methyl-pyrimidin-4-ylamino]-3H-benzooxazol-2-one] gave an IC50 of less than 500 nM.

Same assay, conditions: tested under conditions described in Example 3 (IL-2 stimulated human primary T-cell proliferation); read-out: ability to inhibit JAK3 activity, IC50 range (Table V)
Cc1cnc(Nc2ccc(OC(F)F)c(F)c2)nc1Nc1ccc2oc(=O)[nH]c2c1 [Compound I-347, N2-(4-difluoromethoxy-3-fluoro)phenyl-5-methyl-N4-(2-oxo-2,3-dihydro-1,3-benzoxazol-5-yl)-2,4-pyrimidinediamine] was tested, and the IC50 was less than 500 nM. Cc1cnc(Nc2cc(F)c(C(F)(F)F)c(F)c2)nc1Nc1ccc2oc(=O)[nH]c2c1 [Compound I-415, N2-(3,5-difluoro-4-trifluoromethyl)phenyl-5-methyl-N4-(2-oxo-2,3-dihydro-1,3-benzoxazol-5-yl)-2,4-pyrimidinediamine] showed an IC50 of less than 500 nM. Cc1cnc(Nc2cccc(S(C)(=O)=O)c2)nc1Nc1ccc2[nH]c(=O)[nH]c2c1 [Compound I-22, N4-(benzimidazolin-2-on-5-yl)-N2-(3-methylsulfonyl)phenyl-5-methylpyrimidine-2,4-diamine] gave an IC50 of less than 500 nM. Cc1cc(Nc2ncc(C)c(Nc3ccc4oc(=O)[nH]c4c3)n2)ccc1N1CCN2CCCCC2C1 (centres unmarked) [Compound I-122, N4-(benzo[d]oxazol-2(3H)-on-5-yl)-N2-((4-(dihydro-1H-pyrido[1,2-a]pyrazin-2(6H,7H,8H,9H,9aH)-yl)-3-methyl)phenyl)-5-methylpyrimidine-2,4-diamine] was tested, and the IC50 was less than 500 nM. For Cc1cnc(Nc2ccc(Cl)c(F)c2)nc1Nc1ccc2oc(=O)[nH]c2c1 [Compound I-400, N2-(4-chloro-3-fluoro)phenyl-5-methyl-N4-(2-oxo-2,3-dihydro-1,3-benzoxazol-5-yl)-2,4-pyrimidinediamine], the IC50 was less than 500 nM. Work on Cc1cnc(Nc2cccc(S(C)(=O)=O)c2)nc1Nc1ccc2oc(=O)[nH]c2c1 [Compound I-16] yielded an IC50 of less than 500 nM. In the case of Cc1cnc(Nc2ccc(N3CCSCC3)c(C#N)c2)nc1Nc1ccc2oc(=O)[nH]c2c1 [Compound I-339, N2-(3-cyano-4-thiomorpholino)phenyl-5-methyl-N4-(2-oxo-2,3-dihydro-1,3-benzoxazol-5-yl)-2,4-pyrimidinediamine], the IC50 is reported as less than 500 nM. Cc1cnc(Nc2ccc(S(C)(=O)=O)cc2)nc1Nc1ccc2oc(=O)n(C)c2c1 [Compound I-70, N2-((4-methylsulfonyl)phenyl)-N4-(3-methyl-2-oxo-2,3-dihydrobenzo[d]oxazol-5-yl)-5-methylpyrimidine-2,4-diamine] was tested, and the IC50 was less than 500 nM. O=c1[nH]c2ccc(Nc3nc(Nc4ccc(N5CCOCC5)nc4)ncc3F)cc2[nH]1 [II-19, N4-(benzimidazolin-2-on-5-yl)-N2-((2-morpholinyl)pyridin-5-yl)-5-fluoropyrimidine-2,4-diamine] was tested, and the IC50 was less than 500 nM.
